How the values were obtained:
[1] = test system: HEK-293 human embryonic kidney cells; assay: MTT viability assay, HEK-293
Method: (§1) The MIA PaCa-2 and AsPC-1 pancreatic cancer cell lines were obtained from the American Type Culture Collection (ATCC; Manassas, VA, USA). MIA PaCa-2, a human pancreatic cancer cell line, was isolated from the pancreatic duct (ATCC, CRL-1420) and cultured in Dulbecco’s Modified Eagle’s Medium (DMEM), supplemented with 10% FBS, 2.5% horse serum, and 1% penicillin/streptomycin (P/S). AsPC-1, a human metastatic pancreatic tumor cell line (ATCC, CRL-1682), was cultured in Roswell Park Memorial Institute 1640 Medium, supplemented with 10% FBS and 1% P/S. HDFa, a human primary dermal fibroblast was obtained from the American Type Culture Collection (ATCC; Manassas, VA, USA). The HDFa was cultured in DMEM and supplemented with 10% FBS and 1% P/S. HEK-293 immortalized human embryonic kidney was obtained courtesy of Professor Ewa Augustin from the Gdansk University of Technology. The HEK-293 was cultured in DMEM, and supplemented with 10% FBS and 1% P/S. Cells were cultured at 37 °C in a humidified atmosphere with 5% CO2. The cells were maintained in a 75 cm^2 tissue culture flask. The medium was replaced every two days. […]
(§2) In a 96-well plate, 7 × 10^3 MIA PaCa-2 and AsPC-1 cells and 3 × 10^3 HEK-293 and 10^4 HDFa cells were seeded per well. […] Cell viability was assessed using the MTT assay. […]

washed platelets [2] = assay: Platelet aggregation by compounds alone, light aggregometry; settings: tested concentration
[3] = test system: HDFa human primary dermal fibroblasts; assay: MTT viability assay, HDFa
Method: as §1, §2

[4] = test system: AsPC-1-induced platelet aggregation (washed platelets); assay: Tumor cell-induced platelet aggregation (TCIPA), light aggregometry and TEM; assay type: cell-based, human; settings: 50, 100 μM (any tested concentration), 10 min pre-incubation with washed platelets, AsPC-1 2 × 10^5/mL
Method: The MIA PaCa-2 and AsPC-1 cell cultures were washed and detached with 7 mM EDTA buffer. Next, the buffer was aspirated, and cells were centrifuged for 5 min at 1200 rpm and resuspended in Tyrod buffer. For TCIPA determination, MIA PaCa-2 cells were prepared at different concentrations: 10^5, 2 × 10^5, 5 × 10^5, 10^6 cells/mL; and AsPC-1 cells at concentrations of 5 × 10^4, 10^5, 2 × 10^5 cells/mL [31, 32, 33].
Samples collected after the TCIPA determination using the light aggregometer were fixed in 2.5% glutaraldehyde. The samples were then stained with 1% OsO4, gradually dehydrated with ethanol solution (30–100%), and embedded in EPON solution. Slides were prepared using a Leica UC7 ultramicrotome and stained with Uranyless and Reynolds lead citrate. Preparations were analyzed using a Tecnai G2 Spirit BioTWIN TEM [31].

MIA PaCa-2 cells = assay: Cell senescence (flow cytometry and optical microscopy), MIA PaCa-2; assay type: cell-based, human; settings: MIA PaCa-2, 72 h; OGF-Gem increasing concentrations (3.125–100 nM), OGF 100 nM, Gem 100 nM
Method: In a 6-well plate, 1.7 × 10^5 MIA PaCa-2 and AsPC-1 cells were seeded per well. […] After incubation, the floating and attached cells were collected using a 1% BSA solution and fixed with 2% paraformaldehyde in PBS for 10 min at room temperature. The cells were washed with 1% BSA solution and incubated with the Senescence Detection Kit for 1.5 h at 37 °C without CO2, protected from light. Next, cell senescence was measured via flow cytometry (λex 490 nm; λem 514 nm). Ten thousand events were measured per sample. The data were expressed as a percentage of untreated cells (set to 100%), which were the control.
In a 12-well plate, 10^5 PaCa-2 and AsPC-1 cells were seeded per well. […] The medium was removed from each well and washed with a PBS (pH 7.2) buffer. The cells were incubated with fixative solution (0.2% glutaraldehyde, 2% paraformaldehyde, and a PBS buffer) for 5 min at room temperature. The cells were washed with a PBS (pH 6.0) buffer. Next, the cells were incubated with a staining solution (1 mg/mL X-Gal/DMF, 5 mM K3Fe(CN)6, 5 mM K4Fe(CN)6, 2 mM MgCl2, 150 mM NaCl, and 40 mM citric acid/buffer Na2HPO4) for 16 h at 37 °C, without CO2. After incubation, the cells were observed using an optical microscope (magnification 20x).

washed platelets [5] = assay: LDH release assay on washed platelets; assay type: cell-based, human; settings: 50 and 100 μM, 15 min at 37 °C, fluorescence
Method: The isolated WP (prepared as described in Section 2.12) were transferred to a 96-well plate for fluorescence measurements. Next, the OGF-Gm conjugate and the OGF at 50 and 100 μM concentrations were added. The control sample consisted of platelets suspended in Tyrod buffer. The positive control was WP treated with lysis buffer (0.1% Triton X-100) and the lysis buffered-WPs were set to 100%. Platelets with tested compounds were incubated for 15 min at 37 °C. Then, 100 μL of the LDH assay was added to each well and incubated for another 10 min, protected from light. The reaction was stopped with a Stop Solution buffer. Fluorescence intensity was measured with a plate reader (λex 560 nm; λem 590 nm). The results were expressed as the percentage of the total LDH release.

[6] = Stability in DMEM supplemented with 10% FBS; assay type: in vitro ADME; settings: DMEM + 10% FBS
Method: The OGF-Gem conjugate and OGF alone were incubated in a medium (DMEM) supplemented with 10% FBS at a temperature of 37 °C. The initial concentrations of the peptide and conjugate solutions were both 0.5 mM. Samples of 60 μL were taken immediately after the start of incubation, 30 min, 90 min, 180 min, and 23 h and mixed with 60 μL of acetonitrile to separate the proteins. The formed precipitate was removed via centrifugation for 15 min at 13,000 rpm. The supernatant was analyzed via RP-HPLC [(Shimadzu Prominence, Duisburg, Germany) linear gradient 10–90% phase B, 20 min., column Kinetex 5 μm XB-C18 100Å 150 × 4.6 mm] and MALDI-MS (Autoflex maX MALDI-TOF spectrometer, Bruker Daltonics, Bremen, Germany) using a 2,5-dihydroxybenzoic acid matrix (DHB). A stability analysis was performed according to a protocol previously described by us.

[7] = test system: AsPC-1 metastatic pancreatic cancer cells; assay: MTT cytotoxicity assay, AsPC-1; assay type: cell-based, human; settings: AsPC-1, 72 h
Method: The medium was replaced every two days.
Cell viability was assessed using the MTT assay.

[8] = all tested concentrations (1.56–100 nM), 3 days

SMILES | reduction in HEK-293 cell viability ([1]; 100 nM, 72 h, compared to the 100 nM OGF-Gem derivative) [%] | effect on platelet aggregation (compound alone) (washed platelets [2]) | HDFa cell viability ([3]; 100 nM, 72 h, % of control) [%] | inhibition of TCIPA [4] | induction of cell senescence (MIA PaCa-2 cells) | LDH release from platelets (washed platelets [5]) | concentration after 23 h compared to the initial state ([6]; 37 °C, 0.5 mM, 23 h, RP-HPLC) | presence of intact compound after 23 h (HPLC) ([6]; 37 °C, 0.5 mM, 23 h, RP-HPLC) | cytotoxic effect compared to the commonly used chemotherapeutic agent (Gem) [7] | cytotoxicity to HEK-293 [1, 8] | presence of intact compound after 23 h (MS) ([6]; 37 °C, 0.5 mM, 23 h, MALDI-MS) | presence of intact compound after 3 days (HPLC) ([6]; 3 days at room temperature, RP-HPLC) | release of parent drug during incubation ([6]; HPLC and MS) | remaining at 23 h, 0.5 mM ([6]; DMEM supplemented with 10% FBS, 37 °C, 0.5 mM, 23 h, RP-HPLC, read-out: HPLC peak area of intact conjugate after 23 h relative to area just after start of incubation) [%] | cytotoxicity to HDFa [3, 8]
Nc1ccn([C@@H]2O[C@H](CO)[C@@H](O)C2(F)F)c(=O)n1 [Gem, gemcitabine] | 80 | do not affect platelet aggregation | 35 | did not inhibit | induced |  |  |  |  |  |  |  |  |  | 
CSCC[C@H](NC(=O)[C@H](Cc1ccccc1)NC(=O)CNC(=O)CNC(=O)[C@@H](N)Cc1ccc(O)cc1)C(=O)O [OGF, [Met^5]-enkephalin, reference compound] |  | do not affect platelet aggregation |  |  |  | did not result in significant releases of LDH | lower | still present |  |  |  |  |  |  | 
CSCC[C@H](NC(=O)[C@H](Cc1ccccc1)NC(=O)CNC(=O)CNC(=O)[C@H](Cc1ccc(O)cc1)NC(=O)CCC(=O)OC[C@H]1O[C@@H](n2ccc(N)nc2=O)C(F)(F)[C@@H]1O)C(=O)O [OGF-Gem] |  | do not affect platelet aggregation |  |  |  | did not result in significant releases of LDH |  | confirmed | more pronounced cytotoxic effect | slight cytotoxicity effect | not confirmed | confirmed | gradual release of free Gem | ~39 | slight cytotoxicity effect
